Results reported in US11358949B2, “Carbamate and urea compounds as multikinase inhibitors” (ANGEX PHARMACEUTICAL, INC., priority 2017, dated 2022).

Tests used:
EPHA2 = EPHA2 (Homo sapiens, UniProt P29317); assay: HotSpot Kinase Assay, EPHA2
Protocol: (§1) Specifically, for each reaction, kinase and substrate were mixed in a pH 7.5 buffer containing 20 mM HEPES, 10 mM MgCl2, 1 mM EGTA [Ethylene glycol-bis(2-aminoethylether)-N,N,N′,N′-tetraacetic acid], 0.02% Brij35, 0.02 mg/mL BSA (Bovine Serum Albumin), 0.1 mM Na3VO4, 2 mM DTT, and 1% DMSO. Compounds were then added to each reaction mixture. After a 20-min incubation, ATP (Sigma-Aldrich) and [γ-^33P] ATP (PerkinElmer) were added at a final total concentration of 100 μM. Reactions were carried out at room temperature for 2 hours and spotted onto P81 ion exchange cellulose chromatography paper (Whatman). […] The percent remaining kinase activity relative to a vehicle-containing (DMSO) kinase reaction was calculated for each kinase/inhibitor pair. […] IC50 values were calculated using Prism 5 (GraphPad).

EPHB4 = EPHB4 (Homo sapiens, UniProt P54760); assay: HotSpot Kinase Assay, EPHB4
Sequence of EPHB4 (P54760 16-987): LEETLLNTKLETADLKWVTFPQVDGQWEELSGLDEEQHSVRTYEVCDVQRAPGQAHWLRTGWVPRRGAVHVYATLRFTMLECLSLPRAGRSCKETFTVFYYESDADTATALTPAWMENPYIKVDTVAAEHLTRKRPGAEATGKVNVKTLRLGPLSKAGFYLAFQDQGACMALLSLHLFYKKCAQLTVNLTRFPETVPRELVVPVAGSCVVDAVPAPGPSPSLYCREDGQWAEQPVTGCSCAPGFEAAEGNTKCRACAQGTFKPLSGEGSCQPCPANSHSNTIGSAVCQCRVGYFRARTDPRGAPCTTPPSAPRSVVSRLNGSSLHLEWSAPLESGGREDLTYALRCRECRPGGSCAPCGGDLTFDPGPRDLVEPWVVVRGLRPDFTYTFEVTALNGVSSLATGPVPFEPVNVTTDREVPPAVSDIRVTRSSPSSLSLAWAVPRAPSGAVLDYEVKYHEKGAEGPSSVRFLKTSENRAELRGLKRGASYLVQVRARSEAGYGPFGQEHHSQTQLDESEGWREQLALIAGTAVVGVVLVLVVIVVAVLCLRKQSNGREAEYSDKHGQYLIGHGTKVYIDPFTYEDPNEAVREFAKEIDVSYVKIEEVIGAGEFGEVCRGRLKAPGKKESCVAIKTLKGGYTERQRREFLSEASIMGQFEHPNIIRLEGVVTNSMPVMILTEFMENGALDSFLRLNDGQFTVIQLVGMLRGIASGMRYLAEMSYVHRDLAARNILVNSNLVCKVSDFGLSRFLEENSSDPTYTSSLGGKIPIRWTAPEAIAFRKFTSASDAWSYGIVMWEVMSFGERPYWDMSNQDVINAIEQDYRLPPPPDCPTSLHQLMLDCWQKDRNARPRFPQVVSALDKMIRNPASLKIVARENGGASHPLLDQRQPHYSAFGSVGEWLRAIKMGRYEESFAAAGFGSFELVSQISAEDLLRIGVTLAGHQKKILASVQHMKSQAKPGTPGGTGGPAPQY
Protocol: as §1

Sequence of EPHA2 (P29317 24-976): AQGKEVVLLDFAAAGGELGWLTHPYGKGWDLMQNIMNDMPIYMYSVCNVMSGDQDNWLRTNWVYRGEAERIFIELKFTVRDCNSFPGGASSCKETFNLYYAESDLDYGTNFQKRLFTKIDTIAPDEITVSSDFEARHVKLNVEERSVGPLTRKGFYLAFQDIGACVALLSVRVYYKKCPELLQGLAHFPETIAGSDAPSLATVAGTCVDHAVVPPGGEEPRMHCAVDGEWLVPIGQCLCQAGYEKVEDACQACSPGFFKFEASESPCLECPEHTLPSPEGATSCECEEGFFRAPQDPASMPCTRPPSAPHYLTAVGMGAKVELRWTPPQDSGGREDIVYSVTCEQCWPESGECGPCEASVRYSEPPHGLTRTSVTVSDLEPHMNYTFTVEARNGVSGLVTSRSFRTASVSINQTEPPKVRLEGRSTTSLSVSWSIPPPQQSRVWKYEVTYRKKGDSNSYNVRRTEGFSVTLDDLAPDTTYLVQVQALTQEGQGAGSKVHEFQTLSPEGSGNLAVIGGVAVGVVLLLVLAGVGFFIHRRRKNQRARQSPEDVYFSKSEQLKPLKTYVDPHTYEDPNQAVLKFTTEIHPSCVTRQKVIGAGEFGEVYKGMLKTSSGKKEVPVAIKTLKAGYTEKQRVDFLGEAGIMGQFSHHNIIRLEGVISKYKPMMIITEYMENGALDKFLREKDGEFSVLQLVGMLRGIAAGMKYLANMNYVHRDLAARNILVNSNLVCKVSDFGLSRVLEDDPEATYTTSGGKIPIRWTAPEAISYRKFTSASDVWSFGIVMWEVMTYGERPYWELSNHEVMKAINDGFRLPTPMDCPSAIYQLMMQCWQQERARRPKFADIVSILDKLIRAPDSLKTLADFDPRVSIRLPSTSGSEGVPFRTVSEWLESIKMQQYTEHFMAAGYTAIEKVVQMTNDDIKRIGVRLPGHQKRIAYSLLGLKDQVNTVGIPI

**Q.** With `COc1cc2c(Oc3ccc(NC(=O)C4(C(=O)Nc5ccc(F)cc5)CC4)cc3)ccnc2cc1OC(=O)N1CCN(C)CC1` [Compound 1-10] as the molecule, how does the IC50 (EPHA2) read?
**A.** The IC50 was less than 100 nM.

**Q.** And the IC50 (EPHB4)?
**A.** Its IC50 is 100 to 1000 nM.
